Measured values from US20090227612A1, “Aminopyrimidine Derivatives Inhibiting Protein Kinase Activity, Method For The Preparation Thereof And Pharmaceutical Composition Containing Same” (priority 2005, published 2009).
Like-named read-outs stand apart in the source and are kept apart here.

Assays:
Aurora A = target: T1, Aurora A (Homo sapiens, UniProt O14965); test: Aurora A kinase activity assay (Kemptide substrate, Kinase-Glo residual ATP); format: biochemical; details: recombinant Aurora A 10 nM, ATP 1 μM, Kemptide 100 μM, 30° C. 1 hour
T1 construct: purchased Upstate
T1 sequence (O14965 1-403): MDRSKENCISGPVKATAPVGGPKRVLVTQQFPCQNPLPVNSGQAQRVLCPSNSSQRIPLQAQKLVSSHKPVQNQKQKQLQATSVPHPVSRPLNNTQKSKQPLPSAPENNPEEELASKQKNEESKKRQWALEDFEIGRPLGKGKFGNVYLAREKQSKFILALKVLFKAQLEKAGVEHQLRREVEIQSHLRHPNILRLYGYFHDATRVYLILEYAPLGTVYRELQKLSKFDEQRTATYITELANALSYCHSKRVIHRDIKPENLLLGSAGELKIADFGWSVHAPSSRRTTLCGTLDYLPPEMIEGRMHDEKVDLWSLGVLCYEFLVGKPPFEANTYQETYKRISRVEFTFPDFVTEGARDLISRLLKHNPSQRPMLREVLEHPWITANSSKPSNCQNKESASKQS
Procedure: Further, the test compounds and comparative compound were successively diluted with dimethyl sulfoxide (DMSO) from an initial concentration of 12.5 mM to obtain test solutions and DMSO was used as a control solution. Less than 5% of each test solution or control solution was added to a reaction solution containing 20 mM HEPES (pH 7.5), 5 mM MgCl2, 0.5 mM EGTA, 200 mM KCl, 1 mM DTT and 0.05% triton X-100, and 100 μM of Kemptide peptide (PEPTRON), which is a substrate of aurora kinase, 1 μM of ATP and 10 nM of Aurora A (Upstate), which is a recombinant aurora kinase, were added thereto, followed by reacting each mixture at 30° C. for 1 hour. 25 μl of each reacted solution was mixed with 25 μl of Kinase-Glo™ (promega), and reacted at room temperature for 10 minutes, and the amount of residual ATP therein was measured using Fusion a-FP (Packard). Enzymic activity in each reacted solution was analyzed based on the measured value, and IC50 (μM) was determined as a concentration of the test compound required to inhibit the kinase activity by 50% relatively to the control solution, and the results are shown in Table 2.

[1] = system: human colon carcinoma cell line, HCT116; test: Cancer cell proliferation, SRB assay; format: cell-based; details: HCT116, 48 hours, concentration inhibiting cancer cell proliferation by 50%
Procedure: (§1) In order to examine the suppressive effect of the inventive aminopyrimidine derivatives on the proliferation of cancer cells through inhibiting the protein kinase activity, a test was performed as follows by employing human colon carcinoma cell line, HCT116 (Korean Cell Line Bank, KCLB10247) and human fetal cell line, MRC-5 (Korean Cell Line Bank, KCLB10171).
(§2) HCT116 and MRC-5 cells were plated into the wells of a 96-well plate containing DMEM (Dulbecco's Modified Eagle Medium) medium at a concentration ranging from 1×10^3 to 3×10^3 cells/well, and cultured under conditions of 5% CO2 and 37° C. for 24 hours. Then, the test compounds of Examples 85 to 88, 97 to 99, 105 to 110 and 115 to 118, and a comparative compound, N-(4-(4-(5-methyl-1H-pyrrole-3-yl-amino)-6-(4-methylpiperazin-1-yl)-1,3,5-triazin-2-ylthio) cyclopropane carboxyamide were added thereto in an amount of 0.2, 1, 5, 25 and 100 μM, respectively. The control was not treated with any compound. The cells were cultured for 48 hours.
(§3) After removing the medium from each wells, the cells were washed about 3 times with phosphate-buffered saline (PBS, pH 7.4), followed by fixing with 50% TCA (trichloroacetic acid) refrigerant solution in an amount of 50 μl/well at 4° C. for 1 hour. The fixed cells were washed 5 times with distilled water and dried in the air, and stained with 50 μl/well of 1% acetic acid containing 0.4% SRB (sulforhodamine B) solution at room temperature for 1 hour. The stained cells were washed 5 times with 1% acetic acid and dried in the air, 150 μl/well of 10 mM Tris-HCl (pH 10.5) were added thereto, and the absorbance of each well was measured at 540 nm. The suppressive value of each compound for cell proliferation was calculated based on the absorbance of the control well, and the results are shown in Table 2. In Table 2, EC50 (μM) was determined as a concentration of the test compound required to inhibit cancer cell proliferation by 50% relative to the control, CC50 (μM) was determined as a concentration of the test compound required to inhibit normal cell proliferation by 50% relative to the control, and the therapeutic index was determined as the value of CC50(μM)/EC50(μM).

[2] = Normal cell proliferation, SRB assay; format: cell-based, human; details: human, CC50(μM)
Procedure: as §1, §2, §3

[3] = system: human fetal cell line, MRC-5; test: Normal cell proliferation, SRB assay; format: cell-based
Procedure: as §1, §2, §3

Row | Molecule | IC50 (Aurora A) [nM] | EC50 ([1]; Homo sapiens, HCT-116, 48 h) [nM] | EC50 [1] [nM] | CC50 at 48 h [2] [µM] | CC50 ([3]; human, 48 h) [µM] | CC50 [3] [µM] | CC50 ([3]; MRC-5, 48 hours, concentration inhibiting normal cell proliferation by 50%, read-out: CC50) [µM]
1 | CC1(C)C2CCC1(C)C(NC(=O)c1ccnc(Nc3ccc(N4CCCCC4)cc3)n1)C2 (stereo not drawn) [Compound 85, 2-(4-(piperidine-1-yl)phenylamino)-N-(1,7,7-trimethylbicyclo[2.2.1]heptane-2-yl)pyrimidine-4-carboxyamide] | 33 | 1600 | – | 38 | – | – | –
2 | CN(C)CCNc1ccc(Nc2nccc(C(=O)NC3CC4CCC3(C)C4(C)C)n2)cc1 (stereo not drawn) [Compound 86] | 88 | 1200 | – | > 100 | – | – | –
3 | CC1(C)C2CCC1(C)C(NC(=O)c1ccnc(Nc3ccc(NCCN4CCCC4)cc3)n1)C2 (stereo not drawn) [Compound 88, 2-(4-(2-(pyrrolidine-1-yl)ethylamino)phenyl-amino)-N-(1,7,7-trimethylbicyclo[2.2.1]heptane-2-yl)pyrimidine-carboxamide] | 10 | 800 | – | 24.5 | – | – | –
4 | CC1(C)C2CCC1(C)C(NC(=O)c1ccnc(Nc3cccc(NCCCN4CCOCC4)c3)n1)C2 (stereo not drawn) [Compound 97, 2-(3-(3-morpholinopropylamino)phenylamino)-N-(1,7,7-trimethylbicyclo[2.2.1]hep-tan-2-yl)pyrimidine-4-carboxyamide] | 50 | 3100 | – | > 100 | – | – | –
5 | CC1(C)C2CCC1(C)C(NC(=O)c1ccnc(Nc3cccc(NCCCN4CCOCC4)c3)n1)C2 (stereo not drawn) [Compound 98, 2-(3-(3-morpholinopropylamino)phenylamino)-N-(1,7,7-trimethylbicyclo[2.2.1]hep-tan-2-yl)pyrimidine-4-carboxyamide] | 39 | – | 3200 | – | 52.6 | – | –
6 | COc1ccc(Nc2nccc(C(=O)NC3CC4CCC3(C)C4(C)C)n2)cc1OCCN1CCOCC1 (stereo not drawn) [Compound 99, 2-(4-methoxy-3-(2-morpholinoethoxy)phenyl-amino)-N-(1,7,7-trimethylbicyclo[2.2.1]hep-tan-2-yl)pyrimidine-4-carboxyamide] | 23 | 2000 | – | 52 | – | – | –
7 | CCN1CCN(c2ccc(Nc3nccc(C(=O)NC4CC5CCC4(C)C5(C)C)n3)cc2)CC1 (stereo not drawn) [Compound 105, 2-(4-(4-ethylpiperazin-1-yl)phenylamino)-N-(1,7,7-trimethylbicyclo[2.2.1]hep-tan-2-yl)pyrimidine-4-carboxyamide] | 17 | 500 | – | > 100 | – | – | –
8 | N-(4-(4-(5-methyl-1H-pyrrole-3-yl-amino)-6-(4-methylpiperazin-1-yl)-1,3,5-triazin-2-ylthio) cyclopropane carboxyamide [Comparative compound, reference compound] | 19 | – | 3000 | – | – | – | 33

More lines, main results first:

Row | IC50 (Aurora A) [nM] | EC50 ([1]; Homo sapiens, HCT-116, 48 h) [nM] | EC50 [1] [nM] | Molecule | CC50 at 48 h [2] [µM] | CC50 ([3]; human, 48 h) [µM] | CC50 [3] [µM] | CC50 ([3]; MRC-5, 48 hours, concentration inhibiting normal cell proliferation by 50%, read-out: CC50) [µM]
9 | 11 | – | 900 | CCN(CC)CCOc1cc(Nc2nccc(C(=O)NC3CC4CCC3(C)C4(C)C)n2)ccc1OC (stereo not drawn) [Compound 106, 2-(3-(2-(diethylamino)ethoxy)-4-methoxyphenylamino)-N-(1,7,7-trimethylbicyclo[2.2.1]hep-tan-2-yl)pyrimidine-4-carboxyamide] | – | – | 33 | –
10 | 18 | 1200 | – | COc1ccc(Nc2nccc(C(=O)NC3CC4CCC3(C)C4(C)C)n2)cc1OCCN1CCCC1 (stereo not drawn) [Compound 107, 2-(4-methoxy-3-(2-(pyrrolidin-1-yl)ethoxy)phenylamino)-N-(1,7,7-trimethylbicyclo[2.2.1]hep-tan-2-yl)pyrimidine-4-carboxyamide] | 46 | – | – | –
11 | 10 | 1900 | – | CC1(C)C2CCC1(C)C(NC(=O)c1ccnc(Nc3ccc(N4CCN(CCO)CC4)cc3)n1)C2 (stereo not drawn) [Compound 108, 2-(4-(4-(2-hydroxyethyl)piperazin-1-yl)phenylamino)-N-(1,7,7-trimethylbicyclo[2.2.1]hep-tan-2-yl)pyrimidine-4-carboxyamide] | 56 | – | – | –
12 | 20 | 2800 | – | CC(C)N1CCN(c2ccc(Nc3nccc(C(=O)NC4CC5CCC4(C)C5(C)C)n3)cc2)CC1 (stereo not drawn) [Compound 109, 2-(4-(4-isopropylpiperazin-1-yl)phenylamino)-N-(1,7,7-trimethylbicyclo[2.2.1]hep-tan-2-yl)pyrimidine-4-carboxyamide] | 23.5 | – | – | –
13 | 20 | 1900 | – | CCCN1CCN(c2ccc(Nc3nccc(C(=O)NC4CC5CCC4(C)C5(C)C)n3)cc2)CC1 (stereo not drawn) [Compound 110, 2-(4-(4-propylpiperazin-1-yl)phenylamino)-N-(1,7,7-trimethylbicyclo[2.2.1]hep-tan-2-yl)pyrimidine-4-carboxyamide] | 32 | – | – | –
14 | 93 | 3100 | – | CC(C)CN1CCN(c2ccc(Nc3nccc(C(=O)NC4CC5CCC4(C)C5(C)C)n3)cc2)CC1 (stereo not drawn) [Compound 115, 2-(4-(4-isobutylpiperazin-1-yl)phenylamino)-N-(1,7,7-trimethylbicyclo-[2.2.1]heptan-2-yl)pyrimidine-4-carboxyamide] | 100 | – | – | –
15 | 12 | 1700 | – | CC1(C)C2CCC1(C)C(NC(=O)c1ccnc(Nc3ccc(N4CCN(CC#N)CC4)cc3)n1)C2 (stereo not drawn) [Compound 116, 2-(4-(4-(cianomethyl)piperazin-1-yl)phenylamino)-N-(1,7,7-trimethylbicyclo [2.2.1]heptan-2-yl)pyrimidine-4-carboxyamide] | 26.6 | – | – | –
16 | 19 | 2800 | – | CC1(C)C2CCC1(C)C(NC(=O)c1ccnc(Nc3cccc(NCC#N)c3)n1)C2 (stereo not drawn) [Compound 118, 2-(3-(cianomethylamino)phenylami-no)-N-(1,7,7-trimethylbicyclo-[2.2.1]heptane-2-yl)pyrimidine-4-carboxyamide] | 62.5 | – | – | –
